According to PMC9861212 (Metabolites, 2022):
Where two headings read alike, the source gives them in different places.

Tests used:
[1] = Tissue distribution and residue depletion in pigs
Description: (§5) Another 6 rats were administered physiological saline at the same dose and in exactly the same way as the other animals. The same as above, at each sampling time point, a non-administered animal was killed and a sample was taken to obtain a blank sample. The medication groups samples and blank samples were washed and their weight was recorded. Afterwards, all samples were homogenized and divided into two parts. One part was used to detect the total radioactivity, and the other part was used for SMZ and metabolite analysis.
(§6) The total radioactivity in the samples were measured by Packard Tricarb 2900 liquid scintillation analyzer (LSC). The pretreated 200 μL liquid sample (urine, blood, and bile) was taken and 10 mL of Ultima Gold scintillation fluid was added for total radioactivity detection by LSC. Then, 200 mg of solid samples (feces and tissues) were accurately weighed, and 2 mL of digestion solution were added and mixed well, then the samples were placed in a 55 °C water bath for 6 h, and cooled to room temperature for later use. Then, 0.1 mol/L disodium edetate (EDTA-2Na) and 30% H2O2 of 200 μL were added and mixed evenly. At room temperature, 10 mL Ultima Gold scintillation fluid was added, and radioactivity determination was performed after standing [21].
The feces and tissues (2 g) were extracted with 10 mL methanol and water (4:1, v:v). The mixture was vortexed and sonicated for 5 min and 10 min, respectively, and finally the samples were centrifugated at 8000 rpm/min for 10 min. The supernatants were transferred into a new centrifuge tube and the residues were further extracted with 10 mL methanol and water (4:1, v:v). The supernatants were combined and evaporated to dryness under a nitrogen stream at 45 °C. The residues were dissolved with 0.5 mL of mobile phase and vortexed mixed for 30 s. Then, 1 mL n-hexane was added to remove the lipid, the mixture was vortexed evenly mixed, centrifugated at 10,000 rpm/min for 10 min and the n-hexane layer was discarded. […] The SMZ and its metabolites in the prepared samples were determined by a ν. ARC radiation detector and a hybrid IT/TOF mass spectrometer connected to the HPLC system (Shimadzu Corp., Kyoto, Japan). The HPLC system was equipped with a solvent delivery pump (LC20AD), autosampler (SIL20AC), DGU20A3 degasser, photodiode array detector (SPDM20A), communication base module (CBM20A), and a column oven (CTO20AC). Separation was performed on a X Bridge C18 column (150 × 2.1 mm; 3.5 μm) using a gradient elution consisting of mobile phase A (0.1% formic acid in water) and mobile phase B (acetonitrile). […] Photo-diode array (PDA) detection was performed from 200 to 400 nm. The sample chamber in the autosampler was maintained at 4 °C, whereas the column was set at 25 °C. The total effluent from the detector was transferred directly to the hybrid IT-TOF mass spectrometer without splitting. Metabolites were isolated and identified using a Shimadzu high-performance liquid chromatography-mass spectrometry-ion trap-time-of-flight (LC-MS-IT-TOF) hybrid mass spectrometer equipped with an electrospray ionization (ESI) source and operated in the positive mode. The eluate from the chromatographic separation was divided into two portions. The portion for metabolic quantification was applied to a ν.ARC 2.0, and the rest was analyzed and identified by ion trap time-of-flight tandem mass spectrometry (IT-TOF-MS/MS). Radiochemical detection was performed using the ν.ARC 2.0 Radio-LC system Detector RS232 equipped with a 500 μL detector cell (AIM Research Co., Hockessin, DE, USA).

[2] = pigs, single i.m. 25 mg/kg b.w.
Description: (§7) Six Wistar rats (three females and three males), six chickens and four pigs were housed in clean metabolic cages. […] (0.1 Ci/g). The broiler chickens were given the same dose by oral gavage. According to the recommended guidelines, the urine and feces samples of these animals were collected at different time intervals. […] At the end of the experiment, all animals were anesthetized and sacrificed in accordance with euthanasia guidelines (AVMA, 2001). Urine and feces samples were stored at −80 °C.
as §6

[3] = Metabolite profile of SMZ in pigs (LC-v.ARC/MS-IT-TOF); type: in vivo; conditions: for Detection in feces: pig feces, 7 d after administration
Description: (§1) (0.1 Ci/g). […] Urine and feces samples were stored at −80 °C.
(§2) Each sample was centrifuged at 4 °C for 5 min at 4000 rpm/min. The supernatant was collected and 2 mol/L methanol-mixed acid (methanol: 0.5% perchloric acid, 8:1, v:v) was added. Then, the mixture was centrifugated at 10,000 r/min for 10 min, the supernatant was collected and dried with nitrogen at 45 °C. […] The mixture was subjected to Liquid Chromatography tandem on-line isotope detector/Time of Flight Mass Spectrometry (LC-ν.ARC/MS-IT-TOF) system analysis.
(§3) The mixture was prepared for LC-ν. ARC/MS-IT-TOF system analysis.
(§4) X is the percentage of the individual radioactive substances within the total radioactive residues. AUCM is the area under the curve of the individual radioactive substances in the specific samples. AUCT is the area under the curve of the total radioactive residues in the specific samples.

[4] = Tissue distribution and residue depletion in chickens; conditions: for Concentration of the metabolites in kidney: oral gavage 25 mg/kg twice a day for 7 d, 3 d
Description: In addition, the animals in the blank group (pigs and chickens) and the animals in the treatment group were given physiological saline and 0.5% carboxymethyl cellulose aqueous solution in exactly the same dose and in exactly the same way. […] The same as above, at each sampling time point, a non-administered animal was killed and a sample was taken to obtain a blank sample. The medication groups samples and blank samples were washed and their weight was recorded. Afterwards, all samples were homogenized and divided into two parts. One part was used to detect the total radioactivity, and the other part was used for SMZ and metabolite analysis.
as §6
The feces and tissues (2 g) were extracted with 10 mL methanol and water (4:1, v:v). The mixture was vortexed and sonicated for 5 min and 10 min, respectively, and finally the samples were centrifugated at 8000 rpm/min for 10 min. The supernatants were transferred into a new centrifuge tube and the residues were further extracted with 10 mL methanol and water (4:1, v:v). The supernatants were combined and evaporated to dryness under a nitrogen stream at 45 °C. The residues were dissolved with 0.5 mL of mobile phase and vortexed mixed for 30 s. Then, 1 mL n-hexane was added to remove the lipid, the mixture was vortexed evenly mixed, centrifugated at 10,000 rpm/min for 10 min and the n-hexane layer was discarded. […] The SMZ and its metabolites in the prepared samples were determined by a ν. ARC radiation detector and a hybrid IT/TOF mass spectrometer connected to the HPLC system (Shimadzu Corp., Kyoto, Japan). The HPLC system was equipped with a solvent delivery pump (LC20AD), autosampler (SIL20AC), DGU20A3 degasser, photodiode array detector (SPDM20A), communication base module (CBM20A), and a column oven (CTO20AC). Separation was performed on a X Bridge C18 column (150 × 2.1 mm; 3.5 μm) using a gradient elution consisting of mobile phase A (0.1% formic acid in water) and mobile phase B (acetonitrile). […] Photo-diode array (PDA) detection was performed from 200 to 400 nm. The sample chamber in the autosampler was maintained at 4 °C, whereas the column was set at 25 °C. The total effluent from the detector was transferred directly to the hybrid IT-TOF mass spectrometer without splitting. Metabolites were isolated and identified using a Shimadzu high-performance liquid chromatography-mass spectrometry-ion trap-time-of-flight (LC-MS-IT-TOF) hybrid mass spectrometer equipped with an electrospray ionization (ESI) source and operated in the positive mode. The eluate from the chromatographic separation was divided into two portions.

[5] = Metabolite profile of SMZ in chickens (LC-v.ARC/MS-IT-TOF); type: in vivo; conditions: for Percentage of the individual metabolite compared with total concentration of SMZ-related compounds: within 12 h after dosing; for Share of the total radioactivity in feces: 0.5–1 d after administration
Description: as §1
as §2, with “The weight of each aliquot was 0.1% of the total fraction weight (0.25% for urine). Each” for “Each”
as §3, §4

[6] = cited from earlier work
[7] = Metabolite profile of SMZ in rats (LC-v.ARC/MS-IT-TOF); type: in vivo; conditions: rat urine; after i.m. injection
Description: as §1
as §2, with “The weight of each aliquot was 0.1% of the total fraction weight (0.25% for urine). Each” for “Each”
as §3, §4

[8] = test system: TA100 strain of Salmonella typhimurium; conditions: cited from earlier work
[9] = chickens, single oral gavage 25 mg/kg b.w.
Description: as §7, §6

[10] = Tissue distribution and residue depletion in rats; conditions: single i.m. dose
Description: as §5
The total radioactivity in the samples were measured by Packard Tricarb 2900 liquid scintillation analyzer (LSC). The pretreated 200 μL liquid sample (urine, blood, and bile) was taken and 10 mL of Ultima Gold scintillation fluid was added for total radioactivity detection by LSC. […] At room temperature, 10 mL Ultima Gold scintillation fluid was added, and radioactivity determination was performed after standing [21].
The feces and tissues (2 g) were extracted with 10 mL methanol and water (4:1, v:v). […] The SMZ and its metabolites in the prepared samples were determined by a ν. […] The portion for metabolic quantification was applied to a ν.ARC 2.0, and the rest was analyzed and identified by ion trap time-of-flight tandem mass spectrometry (IT-TOF-MS/MS). […]

[11] = pig, within 12 h after administration
[12] = female rats, single i.m. 25 mg/kg b.w., within 14 d
[13] = male rats, single i.m. 25 mg/kg b.w., within 14 d
[14] = chicken, 6 h after administration
[15] = female rats, single i.m. 25 mg/kg b.w., 0–0.5 d
[16] = female rats, single i.m. 25 mg/kg b.w., 0.5–1 d
[17] = female rats, single i.m. 25 mg/kg b.w., 1–3 d
[18] = female rats, single i.m. 25 mg/kg b.w., 3–7 d
[19] = female rats, single i.m. 25 mg/kg b.w., 7–14 d
[20] = male rats, single i.m. 25 mg/kg b.w., 0–0.5 d
[21] = male rats, single i.m. 25 mg/kg b.w., 0.5–1 d
[22] = male rats, single i.m. 25 mg/kg b.w., 1–3 d
[23] = male rats, single i.m. 25 mg/kg b.w., 3–7 d
[24] = male rats, single i.m. 25 mg/kg b.w., 7–14 d

Cc1cc(NS(=O)(=O)c2ccc(N)cc2)no1 [Compound S0, sulfamethoxazole]
Share of the total residues in fat [1, 11]: 41.9%
Share of the total residues in kidney [1, 11]: 33.5%
Share of the total residues in liver [1, 11]: 34.4%
Share of the total residues in muscle [1, 11]: 55.9%
Total recovery of radioactivity (urine + feces) [12]: 97%
Total recovery of radioactivity (urine + feces) [13]: 98%
Excreted through feces (rats (sexes together), single i.m. 25 mg/kg b.w., within 14 d): 21.4%
Recovery of total radioactivity in feces ([2]; 0–14 d): 14.7%
Detection in feces [3]: not detected

CC(=O)Nc1ccc(S(=O)(=O)Nc2cc(C)on2)cc1 [Compound S1, N4-acetyl-sulfamethoxazole]
Share of the total residues in fat [1, 11]: 58.1%
Share of the total residues in kidney [1, 11]: 66.5%
Share of the total residues in muscle [1, 11]: 44.1%
Detection in feces [3]: detected
Share of the residual amount in fat [4, 14]: 70.0%
Share of the residual amount in kidney [4, 14]: 1.0%
Share of the residual amount in liver [4, 14]: 71.7%
Share of the residual amount in muscle [4, 14]: 42.1%

Nc1ccc(S(=O)(=O)Nc2cc(CO)on2)cc1 [Compound S2, 5-hydroxysulfamethoxazole]
Percentage of the individual metabolite compared with total concentration of SMZ-related compounds ([5]; chicken Extra (feces/excreta)): 9.6%
Percentage of the individual metabolite compared with total concentration of SMZ-related compounds ([5]; chicken bile): 2.5%
Percentage of the individual metabolite compared with total concentration of SMZ-related compounds ([5]; chicken plasma (blood)): 1.2%
Concentration of the metabolites in kidney ([4]; chicken): not detected

Cc1cc(NS(=O)(=O)c2ccc(NO)cc2)no1 [Compound S3, N4-hydroxyamino sulfamethoxazole]
Reactivity / direct cytotoxicity [6]: neither highly reactive nor directly cytotoxic
Percentage of the individual metabolite compared with total concentration of SMZ-related compounds ([5]; chicken Extra (feces/excreta)): 4.4%
Percentage of the individual metabolite compared with total concentration of SMZ-related compounds ([5]; chicken bile): not detected
Share of the total radioactivity in feces ([5]; chicken feces): no longer detected
Percentage of the individual metabolite compared with total concentration of SMZ-related compounds ([5]; chicken plasma (blood)): 0.9%
Concentration of the metabolites in kidney ([4]; chicken): not detected

Cc1cc(NS(=O)(=O)c2ccc(NS(=O)(=O)O)cc2)no1 [Compound S4, N4-sulfatesulfamethoxazole]
Share of the total radioactivity in feces ([5]; chicken feces): 2.06%
Concentration of the metabolites in kidney ([4]; chicken): not detected

Cc1cc(NS(=O)(=O)c2ccc(NC3OC(C(=O)O)C(O)C(O)C3O)cc2)no1 (stereo not drawn) [Compound S5, N4-glucuronidsulfamethoxazole]
Detection in urine by LC-MS-IT-TOF [7]: trace amounts
Detection in urine by LC/MS-IT-TOF ([3]; pig urine, 0–0.5 d): trace amounts
Detection in feces by LC-MS-IT-TOF ([5]; chicken feces, 12 h): trace amount

CC(=O)ONc1ccc(S(=O)(=O)Nc2cc(C)on2)cc1 [N-acetoxy-SMZ]
Mutagenicity in the Ames test [8]: weak mutations
In vitro cytotoxicity relative to S3 [6]: more toxic than S3

[3H]c1cc(N)ccc1S(=O)(=O)Nc1cc(C)on1 [[^3H]-SMZ, 2-[^3H]-sulfamethoxazole]
Time point of the highest levels of radioactivity in all collected substrates ([1]; pigs, i.m. 7 consecutive days): 12 h
Recovery of total radioactivity in feces [15]: 14.31 ± 1.73%
Recovery of total radioactivity in urine [15]: 45.38 ± 6.09%
Recovery of total radioactivity in feces (female rats, single i.m. 25 mg/kg b.w., 0–14 d): 19.58 ± 2.09%
Recovery of total radioactivity in feces [16]: 4.45 ± 1.87%
Recovery of total radioactivity in urine [16]: 19.41 ± 2.15%
Recovery of total radioactivity in feces [17]: 1.02 ± 0.72%
Recovery of total radioactivity in urine [17]: 10.09 ± 3.14%
Recovery of total radioactivity in feces [18]: 0.42 ± 0.28%
Recovery of total radioactivity in urine [18]: 3.97 ± 1.24%
Recovery of total radioactivity in feces [19]: 0.05 ± 0.03%
Recovery of total radioactivity in urine [19]: 0.38 ± 0.17%
Total recovery of radioactivity (urine + feces) [12]: 97.3 ± 1.16%
Recovery of total radioactivity in feces [20]: 17.3 ± 1.16%
Recovery of total radioactivity in urine [20]: 45.33 ± 4.79%
Recovery of total radioactivity in feces (male rats, single i.m. 25 mg/kg b.w., 0–14 d): 23.24 ± 1.79%
Recovery of total radioactivity in feces [21]: 5.3 ± 1.43%
Recovery of total radioactivity in urine [21]: 19.31 ± 7.15%
Recovery of total radioactivity in feces [22]: 0.35 ± 0.14%
Recovery of total radioactivity in urine [22]: 7.49 ± 2.04%
Recovery of total radioactivity in feces [23]: 0.25 ± 0.14%
Recovery of total radioactivity in urine [23]: 2.7 ± 1.89%
Recovery of total radioactivity in feces [24]: 0.05 ± 0.03%
Recovery of total radioactivity in urine [24]: 0.49 ± 0.3%
Total recovery of radioactivity (urine + feces) [13]: 98.56 ± 2.82%
Total radioactive recovery rate (urine and feces) (rats, single i.m. 25 mg/kg b.w., 0–0.5 d): > 59%
Dose excreted (total radioactivity) (rats, single i.m., within 14 days): more than 93%
Recovery of total radioactivity in excreta ([9]; 0–0.5 d, 25 mg/kg): 60.65 ± 13.08%
Recovery of total radioactivity in excreta ([9]; 0–14 d): 93.39 ± 2.28%
Recovery of total radioactivity in excreta ([9]; 0.5–1 d): 15.08 ± 6.87%
Recovery of total radioactivity in excreta ([9]; 1–3 d): 11.91 ± 9.67%
Recovery of total radioactivity in excreta ([9]; 3–7 d): 5.48 ± 1.89%
Recovery of total radioactivity in excreta ([9]; 7–14 d): 0.26 ± 0.13%
Time point of the highest levels of radioactivity in all collected substrates [10]: 1 h
Recovery of total radioactivity in feces ([2]; 0–0.5 d): 5.56 ± 0.42%
Recovery of total radioactivity in urine ([2]; 0–0.5 d): 60.02 ± 16.54%
Total radioactive recovery rate (urine and feces) ([2]; 0–0.5 d): exceeds 65%
Recovery of total radioactivity in feces ([2]; 0–14 d): 14.72 ± 1.31%
Recovery of total radioactivity in feces ([2]; 0.5–1 d): 2.69 ± 3.12%
Recovery of total radioactivity in urine ([2]; 0.5–1 d): 15.3 ± 8.73%
Recovery of total radioactivity in feces ([2]; 1–3 d): 5.19 ± 3.36%
Recovery of total radioactivity in urine ([2]; 1–3 d): 4.52 ± 2.22%
Recovery of total radioactivity in feces ([2]; 3–7 d): 0.82 ± 0.34%
Recovery of total radioactivity in urine ([2]; 3–7 d): 0.59 ± 0.17%
Recovery of total radioactivity in feces ([2]; 7–14 d): 0.45 ± 0.3%
Recovery of total radioactivity in urine ([2]; 7–14 d): 0.16 ± 0.04%
Time point of the highest levels of radioactivity in all collected substrates ([4]; chickens, gavage 7 consecutive days): 6 h
